Measured values from patent publication US20220401407A1, “REGULATION OF THE SLEEP/WAKE CYCLE USING C[…]” (Demetrix, Inc., priority 2021, published 2022).
Entries after “also recorded” stand apart in the source; their conditions may differ.

Tests used:
Type in all cases: cell-based
[1] = biological target: T1, HCRTR1 (Homo sapiens, UniProt O43613); test: PathHunter β-Arrestin GPCR agonist assay, HCRTR1; parameters: concentration or dose not given beside the values; details: agonist mode; Orexin A as control
T1 sequence (O43613 1-425): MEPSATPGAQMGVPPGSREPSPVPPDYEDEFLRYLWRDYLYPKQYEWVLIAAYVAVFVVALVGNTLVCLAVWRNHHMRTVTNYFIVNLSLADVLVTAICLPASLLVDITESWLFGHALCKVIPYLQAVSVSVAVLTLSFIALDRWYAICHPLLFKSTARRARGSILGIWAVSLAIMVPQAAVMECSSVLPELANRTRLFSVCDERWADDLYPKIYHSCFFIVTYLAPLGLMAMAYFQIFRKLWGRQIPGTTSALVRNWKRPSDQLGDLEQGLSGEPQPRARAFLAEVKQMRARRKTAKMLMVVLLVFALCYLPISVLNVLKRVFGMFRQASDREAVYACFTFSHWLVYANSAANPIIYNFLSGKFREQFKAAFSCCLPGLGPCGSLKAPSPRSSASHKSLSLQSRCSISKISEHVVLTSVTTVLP
Description: (§1) To evaluate the role specific cannabinoid compounds may play on the sleep/wake cycle, a GPCR reactivity assay was performed to determine the reactivity of 19 cannabinoid compounds to the orexin receivers HCRTR1 and HCRTR2. The evaluated cannabinoid compounds were: CBN, THCV, CBDVA, CBG, CBL, CBC, CBDV, CBDA, CBD, CBGA, (+)-CBD, CBG-C4, CBD-C1, CBD-C2, CBGV, CBGA-C4, CBGVA, CBCA, and CBLA. Orexin A was used as the control for HCRTR1 and HCRTR2.
(§2) To perform the GPCR reactivity assay, a commercial GPCR assay, PathHunter® β-Arrestin from Eurofins DiscoverX Products (Fremont, Calif.), was used. […] At activation of the GPCR receptor and recruitment of β-arrestin, complementation of the peptide fragments occurs and restores β-galactosidase activity. The amount of β-galactosidase activity is then measurable using chemiluminescent reagents.
(§3) A total of four assays were run. Agonist assays were run for each of HCRTR1 and HCRTR2 and antagonist assays were run for HCRTR1 and HCRTR2. In each of the two agonist assays, PathHunter® cell lines were removed from a freezer stock and seeded at a volume of 20 μL into white walled, 384-well microplates and incubated at 37° C. Each cell was incubated with a sample to induce a response and then diluted to generate a 5× sample in assay buffer. 5 μL of the 5× sample was then added to cells and incubated at 37° C. for 90 or 180 minutes. The final assay concentration was 1%. The assay signal was generated through addition of 12.5 μL or 15 μL (50% V/V) of a detection reagent cocktail followed by a one hour incubation time at room temperature. Microplates were read following signal generation with a PerkinElmer Envision™ (PerkinElmer Inc., Waltham, Mass.) for chemiluminescent signal detection. Reactivity was analyzed using the CBIS data analysis suite (ChemInnovation, CA) where RLU refers to the raw measured values. The percent activity was then calculated using the formula: % Activity=100%*(mean RLU of test sample−mean RLU of control)/(mean max control ligand−mean RLU of vehicle control).
(§4) For agonist activity, the percent activity is depicted while for antagonist activity, the percent inhibition is depicted.

[2] = biological target: T2, HCRTR2 (Homo sapiens, UniProt O43614); test: PathHunter β-Arrestin GPCR agonist assay, HCRTR2; parameters: concentration or dose not given beside the values; details: agonist mode; Orexin A as control
T2 sequence (O43614 1-444): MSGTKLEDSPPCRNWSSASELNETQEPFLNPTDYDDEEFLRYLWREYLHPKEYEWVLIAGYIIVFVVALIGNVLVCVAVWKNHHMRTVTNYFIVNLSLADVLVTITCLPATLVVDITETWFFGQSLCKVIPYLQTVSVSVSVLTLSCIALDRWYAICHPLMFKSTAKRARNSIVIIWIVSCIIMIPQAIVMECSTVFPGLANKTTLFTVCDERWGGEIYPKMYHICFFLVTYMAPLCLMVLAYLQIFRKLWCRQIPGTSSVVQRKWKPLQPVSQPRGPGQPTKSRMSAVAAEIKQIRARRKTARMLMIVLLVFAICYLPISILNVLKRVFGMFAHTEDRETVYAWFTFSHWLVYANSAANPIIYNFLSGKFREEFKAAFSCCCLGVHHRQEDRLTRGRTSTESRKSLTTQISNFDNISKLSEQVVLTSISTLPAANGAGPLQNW
Description: as §1, §2, §3, §4

[3] = biological target: T1, HCRTR1; test: PathHunter β-Arrestin GPCR antagonist assay, HCRTR1; details: for HCRTR1 (Antagonist) percent inhibition: antagonist mode, agonist challenge at EC80
Description: as §1, §2
(§5) In each of the two antagonist assays, PathHunter® cell lines were removed from a freezer stock and seeded at a volume of 20 μL into white walled, 384-well microplates and incubated at 37° C. Each cell was pre-incubated with an antagonist followed by an agonist challenge at the EC80 concentration. Cells were then diluted to generate a 5× sample in assay buffer. 5 μL of the 5× sample was then added to cells and incubated at 37° C. for 30 minutes. Finally, 5 μL of 6×EC80 agonist in assay buffer were added to the cells and incubated at 37° C. for 90 minutes or 180 minutes. The assay signal was generated through addition of 12.5 μL or 15 μL (50% V/V) of a detection reagent cocktail followed by a one hour incubation time at room temperature. Microplates were read following signal generation with a PerkinElmer Envision™ (PerkinElmer Inc., Waltham, Mass.) for chemiluminescent signal detection. Reactivity was analyzed using the CBIS data analysis suite (ChemInnovation, CA) where RLU refers to the raw measured values. The percent inhibition was calculated using the formula: % Inhibition=100%*(1−mean RLU of test sample−mean RLU of control)/(mean RLU of EC80 control−mean RLU of vehicle control).
as §4

[4] = biological target: T2, HCRTR2; test: PathHunter β-Arrestin GPCR antagonist assay, HCRTR2; details: for HCRTR2 (Antagonist) percent inhibition: antagonist mode, agonist challenge at EC80
Description: as §1, §2, §5, §4

[5] = biological target: dopamine receptor DRD5 (Homo sapiens, UniProt P21918); test: PathHunter β-Arrestin GPCR agonist assay, DRD5; parameters: DRD5 (Agonist) percent activity: concentration or dose not given beside the values; details: for DRD5 (Agonist) percent activity: agonist mode, dopamine as control
Description: as §2, §3
Table 2 depicts the results of evaluating the cannabinoid compounds to act as an agonist for the dopamine receptor DRD5. The same experimental procedure as used for HCRTR1 and HCRTR2 agonist testing (Table 1) was followed with the substitution of dopamine as the control for the DRD5 receptor.

Chain of dopamine receptor DRD5 (P21918 whole entry): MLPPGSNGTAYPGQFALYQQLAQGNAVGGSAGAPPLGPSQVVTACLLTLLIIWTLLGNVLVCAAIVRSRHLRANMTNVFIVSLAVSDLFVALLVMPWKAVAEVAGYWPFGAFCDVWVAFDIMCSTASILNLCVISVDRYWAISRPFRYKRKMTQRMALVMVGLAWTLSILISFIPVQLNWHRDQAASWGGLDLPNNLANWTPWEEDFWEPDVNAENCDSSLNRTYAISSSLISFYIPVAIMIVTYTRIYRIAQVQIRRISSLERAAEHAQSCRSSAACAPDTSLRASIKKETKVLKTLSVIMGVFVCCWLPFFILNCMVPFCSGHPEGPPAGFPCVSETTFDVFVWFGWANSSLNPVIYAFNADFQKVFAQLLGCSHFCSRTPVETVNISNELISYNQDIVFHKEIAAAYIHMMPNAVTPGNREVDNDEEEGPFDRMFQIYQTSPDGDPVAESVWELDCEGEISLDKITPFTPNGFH

CCCCCc1cc(O)c2c(c1)OC(C)(C)c1ccc(C)cc1-2 [CBN, cannabinol]
HCRTR1 (Agonist) percent activity [1]: 1%
HCRTR2 (Agonist) percent activity [2]: 7%
antagonist effect on HCRTR1 (in words) [3]: antagonist effect; also recorded: acted as an antagonist
HCRTR1 (Antagonist) percent inhibition [3]: 95%
antagonist effect on HCRTR2 (in words) [4]: antagonist effect; also recorded: acted as an antagonist
HCRTR2 (Antagonist) percent inhibition [4]: 94%
DRD5 (Agonist) percent activity [5]: 3%

C=C(C)[C@@H]1CCC(C)=C[C@H]1c1c(O)cc(CC)cc1O [CBD-C2, cannabidol-C2]
HCRTR1 (Agonist) percent activity [1]: 2%
HCRTR2 (Agonist) percent activity [2]: 1%
antagonist effect on HCRTR1 (in words) [3]: do not demonstrate meaningful activity
HCRTR1 (Antagonist) percent inhibition [3]: 20%
antagonist effect on HCRTR2 (in words) [4]: do not demonstrate meaningful activity
HCRTR2 (Antagonist) percent inhibition [4]: 13%
DRD5 (Agonist) percent activity [5]: 1%

CCCCc1cc(O)c(CC=C(C)CCC=C(C)C)c(O)c1 [CBG-C4, cannabigerol butyl]
HCRTR1 (Agonist) percent activity [1]: 4%
HCRTR2 (Agonist) percent activity [2]: 6%
antagonist effect on HCRTR1 (in words) [3]: antagonist effect; also recorded: acted as an antagonist
HCRTR1 (Antagonist) percent inhibition [3]: 84%
antagonist effect on HCRTR2 (in words) [4]: antagonist effect; also recorded: acted as an antagonist
HCRTR2 (Antagonist) percent inhibition [4]: 45%
DRD5 (Agonist) percent activity [5]: 6%

C=C(C)[C@@H]1CCC(C)=C[C@H]1c1c(O)cc(CCCCC)cc1O [CBD, cannabidol]
HCRTR1 (Agonist) percent activity [1]: 1%
HCRTR2 (Agonist) percent activity [2]: 5%
antagonist effect on HCRTR1 (in words) [3]: antagonist effect; also recorded: acted as an antagonist
HCRTR1 (Antagonist) percent inhibition [3]: 96%
antagonist effect on HCRTR2 (in words) [4]: antagonist effect; also recorded: acted as an antagonist
HCRTR2 (Antagonist) percent inhibition [4]: 85%
DRD5 (Agonist) percent activity [5]: 27%

CCCCCc1cc2c(c(O)c1C(=O)O)C=CC(C)(CCC=C(C)C)O2 (stereo not drawn) [CBCA, cannabichromenic acid]
HCRTR1 (Agonist) percent activity [1]: 3%
HCRTR2 (Agonist) percent activity [2]: 1%
antagonist effect on HCRTR1 (in words) [3]: do not demonstrate meaningful activity
HCRTR1 (Antagonist) percent inhibition [3]: 12%
antagonist effect on HCRTR2 (in words) [4]: do not demonstrate meaningful activity
HCRTR2 (Antagonist) percent inhibition [4]: 17%
DRD5 (Agonist) percent activity [5]: 1%

CCCCc1cc(O)c(C/C=C(\C)CCC=C(C)C)c(O)c1C(=O)O [CBGA-C4, cannabigerolic acid butyl]
HCRTR1 (Agonist) percent activity [1]: 3%
HCRTR2 (Agonist) percent activity [2]: 1%
antagonist effect on HCRTR1 (in words) [3]: do not demonstrate meaningful activity
HCRTR1 (Antagonist) percent inhibition [3]: 2%
antagonist effect on HCRTR2 (in words) [4]: do not demonstrate meaningful activity
HCRTR2 (Antagonist) percent inhibition [4]: 10%
DRD5 (Agonist) percent activity [5]: 0%

C=C(C)[C@@H]1CCC(C)=C[C@H]1c1c(O)cc(C)cc1O [CBD-C1, cannabidiorcol]
HCRTR1 (Agonist) percent activity [1]: 3%
HCRTR2 (Agonist) percent activity [2]: 1%
antagonist effect on HCRTR1 (in words) [3]: do not demonstrate meaningful activity
HCRTR1 (Antagonist) percent inhibition [3]: 12%
antagonist effect on HCRTR2 (in words) [4]: do not demonstrate meaningful activity
HCRTR2 (Antagonist) percent inhibition [4]: 9%
DRD5 (Agonist) percent activity [5]: 0%

C=C(C)[C@@H]1CCC(C)=C[C@H]1c1c(O)cc(CCC)c(C(=O)O)c1O [CBDVA, cannabidivarinic acid]
HCRTR1 (Agonist) percent activity [1]: 0%
HCRTR2 (Agonist) percent activity [2]: 0%
antagonist effect on HCRTR1 (in words) [3]: do not demonstrate meaningful activity
HCRTR1 (Antagonist) percent inhibition [3]: 7%
antagonist effect on HCRTR2 (in words) [4]: do not demonstrate meaningful activity
HCRTR2 (Antagonist) percent inhibition [4]: 10%
DRD5 (Agonist) percent activity [5]: 4%

CCCc1cc(O)c(C/C=C(\C)CCC=C(C)C)c(O)c1C(=O)O [CBGVA, cannabigerovarinic acid]
HCRTR1 (Agonist) percent activity [1]: 0%
HCRTR2 (Agonist) percent activity [2]: 1%
antagonist effect on HCRTR1 (in words) [3]: do not demonstrate meaningful activity
HCRTR1 (Antagonist) percent inhibition [3]: 3%
antagonist effect on HCRTR2 (in words) [4]: do not demonstrate meaningful activity
HCRTR2 (Antagonist) percent inhibition [4]: 12%
DRD5 (Agonist) percent activity [5]: 0%

CCCCCc1cc(O)c(C/C=C(\C)CCC=C(C)C)c(O)c1 [CBG, cannabigerol]
HCRTR1 (Agonist) percent activity [1]: 3%
HCRTR2 (Agonist) percent activity [2]: 4%
antagonist effect on HCRTR1 (in words) [3]: antagonist effect; also recorded: acted as an antagonist
HCRTR1 (Antagonist) percent inhibition [3]: 98%
antagonist effect on HCRTR2 (in words) [4]: antagonist effect; also recorded: acted as an antagonist
HCRTR2 (Antagonist) percent inhibition [4]: 68%
DRD5 (Agonist) percent activity [5]: 9%

CCCCCc1cc(O)c2c(c1)OC1(C)CCC3C1C2C3(C)C (stereo not drawn) [CBL, cannabicyclol]
HCRTR1 (Agonist) percent activity [1]: 2%
HCRTR2 (Agonist) percent activity [2]: 5%
antagonist effect on HCRTR1 (in words) [3]: antagonist effect; also recorded: acted as an antagonist
HCRTR1 (Antagonist) percent inhibition [3]: 96%
antagonist effect on HCRTR2 (in words) [4]: antagonist effect; also recorded: acted as an antagonist
HCRTR2 (Antagonist) percent inhibition [4]: 93%
DRD5 agonist effect (in words) [5]: DRD5 agonists; also recorded: stronger agonist effects
DRD5 (Agonist) percent activity [5]: 37%
